Source: PubChem BioAssay (NCI)
Several values for one entry are separate records, joined by “and”; a condition that tells them apart may be missing. Equal values may be shown once.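 Growth conditions: 96-well plates. Treatment: test compound, 48 hours, 5 concentrations. Analysis: linear interpolation between bracketing concentrations; unreached endpoints set to highest concentration. GI50: concentration for 50% inhibition of growth. TGI denotes the concentration required for complete inhibition of growth.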

Legend:
Assay in all cases: DTP human tumour cell line panel, 48 h
OVCAR-3 ovarian = test system: OVCAR-3 ovarian
SF-539 CNS = test system: SF-539 CNS
MDA-MB-435 = test system: MDA-MB-435
UO-31 renal = test system: UO-31 renal
TK-10 renal = test system: TK-10 renal
PC-3 prostate = test system: PC-3 prostate
HL-60(TB) leukemia = test system: HL-60(TB) leukemia
RPMI-8226 leukemia = test system: RPMI-8226 leukemia

SMILES | GI50 (OVCAR-3 ovarian) [µM] | TGI (OVCAR-3 ovarian) | GI50 (SF-539 CNS) [µM] | TGI (SF-539 CNS) [µM] | GI50 (MDA-MB-435) [µM] | TGI (MDA-MB-435) [µM] | GI50 (UO-31 renal) [µM] | TGI (UO-31 renal) | GI50 (TK-10 renal) [µM] | TGI (TK-10 renal) [µM] | GI50 (PC-3 prostate) [µM] | TGI (PC-3 prostate) [µM] | GI50 (HL-60(TB) leukemia) [µM] | TGI (HL-60(TB) leukemia) [µM] | GI50 (RPMI-8226 leukemia) [µM] | TGI (RPMI-8226 leukemia) [µM]
NC(=NCCCCCCN=C(N)/N=C(\N)Nc1ccc(Cl)cc1)/N=C(\N)Nc1ccc(Cl)cc1 | 1.45 | 3.55 µM | 1.62 | 3.98 | 1.54 | 5.94 | 2.61 | 11 µM | 2.13 | 8.9 | 1.74 | 6.38 | 1.1 | 2.49 |  | 
O=C1C(Cl)=C(Nc2ccc(S(=O)(=O)c3ccc(NC4=C(Cl)C(=O)c5ccccc5C4=O)cc3)cc2)C(=O)c2ccccc21 |  |  | 1.91 | 3.71 |  |  | 1.38 | 2.85 µM | 1.67 | 3.04 |  |  | 3.24 | 8.62 | 1.54 | 7.25
CC(C)=C[C@@H]1C[C@H](C)[C@H]2CC[C@H](C)c3c(O)c(OC4OC(C)C(O)C(O)C4O)c(C)c1c32 (stereo partly specified) | 1.93 | 8.43 µM | 17.9 | 33 | 13.6 | 27.2 | 14.6 | 27.8 µM | 16.3 | 30.2 |  |  | 10.4 | 25.7 | 12.5 | 27.6
O=C(/C=C/c1ccc(O)c(O)c1)N1CCN(c2ccc(Cl)cc2)CC1 |  |  | 4.4 | 21.1 | 5.93 | 62.2 | 2.08 | 20.1 µM | 3.59 | 26.2 | 4.67 | 31.1 |  |  | 2.87 | 29.7
CNC(=O)CCN1CCN(CC/C=C2\c3ccccc3Sc3ccc(Cl)cc32)CC1 | 11.8 | 27 µM | 12.5 | 25.6 | 1.96 | 4.91 | 11.4 | 27.4 µM | 14 | 29.2 | 9.07 | > 45 | 4.33 | > 41.1 | 3.65 | 18.2
Cc1cc(C)c2nc3c(c(C(O)C4CCCCN4)c2c1)CC/C3=C\c1ccc(Cl)cc1 (stereo unspecified) |  | > 100 µM |  | > 100 |  | > 100 |  |  |  | > 100 |  | > 100 |  | 67.6 |  | > 100
CCCN1C(=O)/C(=C/c2ccc(SC(F)(F)F)cc2)SC1=Nc1ccc(OC)cc1 | 13.5 | 31.1 µM | 9.96 | 21.6 | 20 | > 50 | 8.2 | 17.1 µM | 7.1 | 19.2 | 15.6 | > 50 | > 50 | > 50 | 11.8 | > 50
COc1cc(-c2nc(-c3ccccc3)c(-c3ccccc3)[nH]2)cc(OC)c1O | 18.3 | 34.2 µM | 15.8 | 30.8 | 14.5 | 28.4 | 13.2 | 31 µM | 25.1 | 50.5 | 17.9 | 50.2 | 31.5 | > 100 | 24.1 | 83
COC(=O)c1c(C)nc(C)c2c1C(=O)C(Br)=C(NCc1ccccc1)C2=O | 2.27 | 6.16 µM | 2.85 | 8.01 | 1.86 | 3.38 | 2.41 | 10.7 µM | 10.1 | 21.9 | 2.73 | 10.9 |  |  | 3.24 | 11.7
O=[N+]([O-])c1ccccc1N=Nc1c(O)[nH]c2c(Cl)cccc12 |  | > 85.3 µM |  | > 100 |  | > 100 |  | > 67.2 µM |  | > 54.9 |  | > 100 |  | > 100 |  | 96.2
COc1cc(C(=O)c2cnc(-c3c[nH]c4cccc(C)c34)[nH]2)cc(OC)c1OC | 0.00332 | 0.0125 µM | 0.00289 | 0.00874 | 0.00222 | 0.0051 | 0.00965 | 14.7 µM |  |  | 0.00537 | > 100 |  |  | 0.0399 | 19.8
Cn1cc(-c2cc(-c3cn(C)c4ccccc34)[nH]n2)c2ccccc21 | 28.4 | > 100 µM | 16.2 | 44.3 |  |  | 37.6 | > 100 µM | 37.4 | > 100 | 8.11 | > 100 | 15.4 | 62.8 | 37.8 | > 100
S=c1ssnc1-c1cc2ccccc2o1 | 15.6 | 49.2 µM | 15.3 | 29.8 | 11.6 | 32 | 13.4 | 30 µM | 22.1 | 45.9 | 3.82 | 24.2 | 14 | > 100 | 2.36 | 25.7
N=C(N)c1ccc2oc3ccc(C(=N)N)cc3c(=O)c2c1 |  | > 100 µM |  | > 100 |  | > 100 |  | > 100 µM |  | > 100 |  | > 100 |  | > 100 |  | > 100
CCc1ccc2c(c1)C(=O)c1c-2n(CCCN)c(=O)c2cc(OC)c(OC)cc12 | 1.51 | 2.89 µM | 1.64 | 3.07 | 1.97 | 3.55 | 1.74 | 3.32 µM | 1.74 | 3.28 | 1.54 | 2.92 | 1.37 | 3.47 | 1.41 | 3.02
C=CCC(N[C@@H](CO)c1ccccc1)c1ccc2ccccc2n1 (stereo partly specified) | 57.4 | > 100 µM | > 100 | > 100 | > 100 | > 100 | 88.2 | > 100 µM | > 100 | > 100 | > 100 | > 100 | 12.3 | 51.5 | 30.2 | > 100
CCSC[C@@H]1C[C@](O)(c2ccccc2)[C@@H](c2ccccc2)O1 | 70.1 | > 100 µM | > 100 | > 100 | > 94.6 | > 100 | 51.2 | > 100 µM | > 91.7 | > 100 | 56.7 | > 100 | 9.84 | > 50.7 | 28.7 | > 100
CC(C)(O)C1COC2=C1C(=O)c1ccccc1C2=O (stereo unspecified) |  | 57.8 µM |  | > 100 |  | 44.6 |  | > 100 µM |  |  |  | > 100 |  | 44.9 |  | > 100

SMILES | GI50 (OVCAR-3 ovarian) [µM] | TGI (OVCAR-3 ovarian) | GI50 (SF-539 CNS) [µM] | TGI (SF-539 CNS) [µM] | GI50 (MDA-MB-435) [µM] | TGI (MDA-MB-435) [µM] | GI50 (UO-31 renal) [µM] | TGI (UO-31 renal) | GI50 (TK-10 renal) [µM] | TGI (TK-10 renal) [µM] | GI50 (PC-3 prostate) [µM] | TGI (PC-3 prostate) [µM] | GI50 (HL-60(TB) leukemia) [µM] | TGI (HL-60(TB) leukemia) [µM] | GI50 (RPMI-8226 leukemia) [µM] | TGI (RPMI-8226 leukemia) [µM]
CCn1cc(C(=O)O)c(=O)c2cc(F)c(N3CCN(S(=O)(=O)c4ccc(Cl)cc4Cl)CC3)cc21 | 2.54 | 5.79 µM | 1.92 | 4.07 | 1.97 | 4.44 | 2.2 | 5.77 µM | 4.02 | 23 | 2.43 | 10.7 | 2.22 | 5.15 | 2.55 | 7.59
CCCCCCCCCCCC/C=C\CC[C@@H](O)[C@H](O)CC[C@H](O)[C@@H]1CC[C@@H](CCCCCCCC2=C[C@H](C)OC2=O)O1 | 0.434 | 6.64 µM and 18.7 µM |  |  | 11.4 |  | 12.4 | 9.26 µM and 41.9 µM | 10 | 28.6 | 2.22 | 16.5 |  | 6.56 | 1.43 | 3.87
COC1C(OC(=O)c2ccc(C)[nH]2)C(O)C(Oc2ccc3c(O)c(NC(=O)c4ccc(O)c(CC=C(C)C)c4)c(=O)oc3c2Cl)OC1(C)C (stereo unspecified) |  | 43.6 µM |  | 38.1 |  | > 100 |  |  |  | > 100 |  | 29.3 |  | > 100 |  | 30.4
O=c1c(I)c[nH]cc1I | > 100 | > 100 µM | > 100 | > 100 | > 100 | > 100 | > 100 | > 100 µM | > 100 | > 100 | > 100 | > 100 | > 100 | > 100 | > 100 | > 100
Cc1cc(NC(=O)NCc2ccc(N3C(N)=NC(N)=NC3(C)C)cc2)ccc1S(=O)(=O)F | 8.4 | > 81.9 µM | 2.38 | > 69.2 | 0.456 | > 100 | > 100 | > 100 µM | 5.5 | > 100 | 0.0962 | 31 | 0.716 | > 57.5 | 4.55 | > 100
CC(C)(Oc1ccc(-c2cccc3ccccc23)cc1)C(=O)O |  | > 100 µM |  | > 100 |  | > 100 |  | > 100 µM |  | > 100 |  | > 100 |  | 30.1 |  | > 100
Nc1nc(SCc2ccccc2CCl)c2[nH]cnc2n1 | 14.6 | 28.9 µM | 21.9 | 54 | 12.8 | 25.7 | 10.5 | 71.9 µM |  |  | 25.1 | > 100 |  |  | 31.9 | > 100
CCN(CC)c1ccc(/C=N/NC(=O)Cc2ccc(Nc3ccnc(C(F)(F)F)c3)cc2)c(O)c1 | 0.473 | > 100 µM | 0.652 | 7.02 | 1.29 | > 100 | 0.482 | > 100 µM | 0.461 | > 100 | 1.85 | > 100 | 0.301 | 1.62 | 0.521 | 54.2
O=c1[nH]c2cc(Cl)ccc2nc1/C(=N\Nc1ccccc1)C(O)c1ccc2c(c1)OCO2 (stereo unspecified) |  | > 100 µM |  | > 100 |  | > 100 |  | > 100 µM |  | > 100 |  | > 100 |  | > 100 |  | > 100
CCN(CC)CCOC(COc1cc(C)cc(C)c1)COc1cc(C)cc(C)c1 | 3.46 | 13 µM | 1.62 | 3.3 | 1.64 | 3.63 | 2.19 | 13 µM | 3.45 | 14.5 | 2.6 | 10.1 | 1.94 | 4.48 |  | 
Cc1ccc(NCCNCC(C)(C)O)c2c(=O)c3ccc(Cl)cc3sc12 | 1.66 | 3.13 µM | 1.44 | 2.82 | 1.74 | 3.27 | 1.03 | 2.24 µM | 2.17 | 3.89 | 1.35 | 2.71 | 1.45 | 3.17 |  | 
Cc1cc(N2CCC(N3CCCC3)CC2)nc(/N=C(\N)Nc2ccc(Cl)c(Cl)c2)n1 | 1.72 | 3.26 µM | 1.72 | 3.54 | 1.74 | 3.3 | 1.44 | 2.85 µM | 1.93 | 3.72 | 2.65 | 8.26 |  |  | 0.264 | 0.926
CN1C2C=CC(=O)C1C1C(=O)N(c3ccccc3)C(=O)C12 (stereo unspecified) | 2.35 | 6.73 µM | 4.87 | 17.7 | 3.44 | 22.8 | 3.49 | 17.9 µM | 4.55 | 18.9 | 5.8 | 47.3 | 2.19 | > 100 |  | 
C=C1C(=O)OC2CC(C)C(/C=C/C(C)=O)=CCC12 (stereo unspecified) |  | > 100 µM |  | > 100 |  | > 100 |  |  |  | > 100 |  | > 100 |  | > 100 |  | > 100
O=c1ccc(N=Nc2ccccc2)ccc1O |  | 22 µM |  | 37.2 |  | 30.7 |  | 70.9 µM |  | 60.2 |  | 28.6 |  | 51.2 |  | 
N[C@@H]1CCCN(c2c(Br)cnc3[nH]cc(NC(=O)C4CC4)c23)C1 | 0.364 | > 100 µM | 0.0809 | 0.503 |  |  | 0.232 | 1.06 µM | 0.606 | > 68.6 | 20.3 | > 100 | 0.318 | 4.51 | 0.68 | 
Nc1cccc(-c2cc(=O)c3cc4c(cc3[nH]2)OCO4)c1 |  |  |  | 2.79 |  | 0.415 |  | > 75.9 µM |  | > 100 |  | 13 |  | > 100 |  | > 100
COc1cc(C2CC(c3ccccc3)=NN2C=O)ccc1Oc1ccnc2cc(Cl)ccc12 (stereo unspecified) | 18.6 | > 100 µM | 10.3 | 77.9 |  |  | 13.5 | > 100 µM |  |  | 2.8 | > 100 |  |  |  | 
